From patent US8834930B2, “Pulmonary delivery of a fluoroquinolone” (Novartis AG, priority 2008, dated 2014)

Tests used:
[1] = Powder dispersibility, laser diffraction with varied RODOS dispersing pressure; type: physicochemical; details: dispersing pressure 0.2 bar
Method: As used herein, the relative dispersibility of spray-dried powders is determined with the Sympatec (laser diffraction) by varying the dispersing pressure of the RODOS dispersion unit, from about 0.2 bar to 4.0 bar. As used herein, the dispersibility index, δ (delta), is defined as the ratio of the x50 measured at a dispersing pressure of 0.2 bar to that at 4.0 bar.
The relative dispersibility of powder formulations can be studied with the laser diffraction technique by varying the dispersing pressure in the RODOS disperser. […] The ratio of the median particle sizes measured at low and high dispersing pressures is a measure of the dispersibility of the powder.

[2] = background; cited from earlier work
[3] = Surface properties (BET specific surface area, porosity, rugosity); type: physicochemical
Text: As used herein, specific surface area (SSA) refers to the SSA calculated from gas adsorption data according to a theory developed by Brunauer, Emmett, and Teller (J Amer Chem Soc 1938, 60:309), generally referred to as the BET method.
As used herein, particle porosity refers to the total pore volume in %, calculated from nitrogen gas absorption data. In nitrogen adsorption, the pores are filled (and emptied) according to the Kelvin capillary condensation equation. As the partial pressure of nitrogen increases, condensation of the gas will begin in the smaller pores and progressively fill larger and larger pores until bulk condensation occurs. Using this technique, nitrogen is first condensed in the pores by setting the partial pressure of nitrogen to a value near saturation. Then, the nitrogen is gradually desorbed in a stepwise fashion by reducing its vapor pressure. The pore size distribution is calculated by analyzing the nitrogen desorption isotherm using the Kelvin equation to determine the amount of condensed nitrogen in the pores (assuming a cylindrical pore geometry), wherein the adsorptive loss at each step represents the core volume of pores emptied during that step. The calculation is automated, and follows the algorithm proposed by Barrett et al (Barrett E P, Joyner L G, Halenda P P: The determination of pore volume and area distributions in porous substances I. computations from nitrogen isotherms. J Amer Chem Soc 1951, 73:373-380). This approach holds for pore diameters as small as about 2 nm, i.e., down to the […] region.
Rugosity (Sv) is a measure of the surface roughness of an engineered powder. For the purposes of this invention, rugosity is calculated from the specific surface area obtained from BET measurements, the true density obtained by helium pycnometry, and the surface/volume ratio of the particle obtained by laser diffraction (Sympatec), viz:
Significant increases in specific surface area, porosity, and rugosity Sv are observed for the phospholipid-coated particles relative to micronized drug. […]

For `O=C(O)c1cn(C2CC2)c2cc(N3CCNCC3)c(F)cc2c1=O` [ciprofloxacin betaine], which x50 [1] is on record?
Its x50 is 3.5 μm.

Which pK1 [2] does the source give for `O=C(O)c1cn(C2CC2)c2cc(N3CCNCC3)c(F)cc2c1=O` [ciprofloxacin] here?
The pK1 was 6.0.

With `O=C(O)c1cn(C2CC2)c2cc(N3CCNCC3)c(F)cc2c1=O` [Lot BXA1GE7] as the compound, how does the “Rugosity Sv” value ([3]; API shape factor = 1.27) read?
The value was 1.1.

And the “Specific Surface Area” value ([3]; BET)?
The value was 4.4 m^2/g.

What about the “Sympatec Sv” value ([3]; laser diffraction) of the same compound?
The value was 4.91 m^2/cm^3.
